# Experimental data as given in patent US20130225412A1, “SILICON NANOCARRIER FOR DELIVERY OF DRUG, PESTICIDES AND HERBICIDES , AND FOR WASTE WATER TREATMENT” (priority 2012, published 2013).
# Experiment: Release from loaded diatomaceous earth measured by Nano Drop spectrophotometer
# Type: physicochemical
# Conditions: for start of release after loading / time of peak release: release pattern measured by NanoDrop
# Method: According to embodiments herein, the diatom structure and drug loading capacity can vary for different kind of medicines. For example for anticancer Fluorouracil (5-FU or f5U) a master mix of 50 mg/ml was prepared. 0.8 ml of this master mix was added to 200 ml pure ethanol. 0.6 g diatomaceous earth (diatom cell wall) was added to this mixture and was left to be stirred for 3 hours with 200 rpm. Finally after filtration, diatom cell wall was washed once with methanol. 12 hours later at room temperature diatom cell wall were dried and loaded with Fluorouracil (5-FU or f5U).
# Final concentration of 200 mg/ml of Gallic acid in Methanol/Diatomaceous Earth was prepared. To ensure that none of the Gallic acid was left on the outer surface of nano silicon, it washed by Methanol. After his, its release in water by interval of 2 hours was measured at the wavelength of 270 nm.
# Evaluation of Benomyl fungicide release by nano Drop Spectrophotometer: Material and methods were identically same as Gallic Acid. After measuring all ODs, release calibration curve was drawn. […] With respect to FIG. 5, it is seen that the Benomyl releases after 12 hours of loading and gets to its peak release after 40 hours and the release decreases sharply. This is a kind of controlled release.
# 5-flouracil release pattern by nano Drop Spectrophotometer was evaluated. […] With respect to FIG. 6, it can be seen that the drug 5-Florouracil releases after 8 hours from the loading starts and 16 hours after gets peak release and then fall of gradually. This is a kind of controlled release.
# Progesterone release pattern by nano Drop Spectrophotometer was evaluated.
SMILES,start of release after loading [h],time of peak release [h],"release in water (loaded in Diatomaceous Earth, washed by Methanol)","optical density (ODs) measures (release in water, interval of 2 hours, wavelength 270 nm, loaded in Diatomaceous Earth)"
O=c1[nH]cc(F)c(=O)[nH]1 [fluorouracil],8,16,,
CC(=O)[C@H]1CC[C@H]2[C@@H]3CCC4=CC(=O)CC[C@]4(C)[C@H]3CC[C@]12C [Progesterone],4,28,,
O=C(O)c1cc(O)c(O)c(O)c1 [Gallic acid],,,none of the Gallic acid has been released in water,zero
CCCCNC(=O)n1c(NC(=O)OC)nc2ccccc21 [Benomyl],12,40,,
